The text below walks through data of patent US5691366A, “Nitro compounds, process for preparation thereof and use thereof” (Fujisawa Pharmaceutical Co., Ltd., priority 1991, dated 1997).

Where two headings read alike, the source gives them in different places. Some results are limits rather than exact numbers.

In assay [1] the test system is human platelet aggregation. Briefly: Inhibition of human platelet aggregation (anti-platelet aggregation activity). It counts as cell-based. The settings on record: human PRP, concentration required to inhibit aggregation by 50%, read-out: ED50 (the source's name). Here is the method: Inhibitory activity of the nitro compounds of this invention against human platelet aggregation was measured according to the method described below.
Blood was collected from human volunteers. The blood was prevented from coagulation with 1 volume of 3.8% sodium citrate to 9 volumes of blood. Platelet rich plasma (PRP) was prepared by centrifugation of the blood at 1300 rpm for 10 min. at 10° C. The PRP was diluted with platelet poor plasma obtained by further centrifugation of the blood at 3000 rpm for 10 min. The platelet counts in the PRP used for aggregation studies were about 4.0×10^5 platelets/mm^3. Aggregation studies were performed turbidimetrically using NKK HEMATRACER 1. To 225 μl of PRP 25 μl of the test compounds was added and preincubated for 2 min. After preincubation 5 μl of aggregating agents were added to the mixture. Collagen and ADP were used as aggregating agents at the concentrations of 0.5 μg/ml and 2.5 μM, respectively. Activities of the test compounds were expressed as ED50 values i.e. concentrations required to inhibit the platelet aggregation responses by 50%.

The subject of assay [2] is Mean Arterial Blood Pressure in Anesthetized Rats. Briefly: Effect on mean arterial blood pressure in anesthetized rats (intravenous). The format is in vivo, rat (male Sprague-Dawley). Conditions: for inhibition in vivo at 0.032 mg/kg / inhibition in vivo at 0.1 mg/kg / inhibition in vivo at 0.32 mg/kg: Rattus norvegicus, iv, maximal % decrease of mean blood pressure, read-out: Hypotensive effect R max; for Hypotensive effect T 1/2: i.v., time to recover to half of maximal decrease. The method, then:
Male Sprague-Dawley rats, aged 9-12 weeks, were anesthetized with urethane (1.4 g/kg i.p.). A polyethylene cannula filled with heparin solution was inserted into the femoral artery of the rats to measure mean blood pressure. Mean blood pressure was measured with a pressure transducer and recorded on a polygraph. The test compound dissolved in ethanol, polyethylene glycol and distilled water (1:1:2), were administered intraveneously in a volume of 0.25 ml/kg. Intravenous hypothypotensive effects of each compound were expressed as the maximal decrease (R max) and the half time (T 1/2). Briefly, R max was expressed as maximal % change compared to mean blood pressure prior to the administration of compound. T 1/2 was expressed as a time during which the hypotensive effect recovered to half of the maximal decrease.

Assay [3] relates to thoracic aorta from male Sprague-Dawley rats. The assay is described as follows: Vasodilating activity in vitro (relaxation of norepinephrine-contracted aortic strips). Details: species or system rat (male Sprague-Dawley). The settings on record: rat aorta helical strips contracted by 3.2×10^-8 g/ml norepinephrine, 37° C. Here is the method:
The thoracic aorta from male Sprague-Dawley rats, aged 9-11 weeks, were removed and cut into helical strips after removal of excess fat and connective tissues. The strips were mounted vertically in organ baths containing 25 ml Tyrode solution and isometric tension was measured. The tissue bath solution was maintained at 37° C. and bubbled with a 95% O2 and 5% CO2 gas mixture. After the resting tension was adjusted to 0.5 g, the strips were contracted by 3.2×10^-8 g/ml of norepinephrine (NE). The test compound dissolved in ethanol, polyethylene glycol and distilled water (1:1:2) were added to the organ bath cumulatively.
Then, relaxative activity of test compound was expressed as IC50 value i.e. concentration required to inhibit the contraction response by 50%.

For assay [4], the system named is Mean Arterial Blood Pressure in Conscious Rats. Briefly: Effect on mean arterial blood pressure in conscious rats (oral). The format is in vivo, rat (male Sprague-Dawley). Conditions: for Hypotensive effect Dur.: time to recover to 5% of maximal decrease; for Hypotensive effect T 1/2: time to recover to half of maximal decrease; for inhibition in vivo at 3.2 mg/kg / inhibition in vivo at 10 mg/kg / inhibition in vivo at 32 mg/kg: Rattus norvegicus, po, maximal % decrease of mean blood pressure, read-out: Hypotensive effect R max. The method, then: Male Sprague-Dawley rats, aged 9-11 weeks, were anesthetized with ether and a polyethylene cannula filled with heparin solution was inserted into the femoral artery of the rats to measure mean blood pressure. Mean blood pressure was measured with a pressure transducer and recorded on a polygraph. Two hours after operation, the drug suspended in 0.5% methyl cellulose was administered orally in a volume of 5 ml/kg. Oral hypotensive effects of each compound were expressed as the maximal decrease (R max), the half time (T 1/2) and the duration (Dur.). Briefly, R max was expressed as maximal % change compared to mean blood pressure prior to the administration of compound. T 1/2 was expressed as a time during which the hypotensive effect recovered to half of the maximal decrease. Duration was expressed as a time during which the hypotensive effect recovered to 5% of the maximal decrease.

The mark [5] stands for this setting: Homo sapiens, Platelet, Inducer: ADP 2.5 μM.

As for `CCC(=CC(COC(N)=O)=NO)C(C)[N+](=O)[O-]` (single isomer, unassigned) [Example 2 B, 4-Ethyl-2-hydroxyimino-5-nitro-3-hexen-1-yl carbamate], the IC50 turned out to be 2.4 µM in assay [1] (Inducer: ADP 2.5 μM), 3.6 µM in assay [1] (Inducer: Collagen 0.5 μg/ml) and 11.1 µM in assay [3] (Rattus norvegicus). The inhibition in vivo at 0.032 mg/kg in assay [2] (0.032 mg/kg) was 30.9%. Moreover, the inhibition in vivo at 0.1 mg/kg in assay [2] (0.1 mg/kg) was 35.4%. Also, the “Hypotensive effect T 1/2” value was 5.3 min in assay [2] (0.032 mg/kg) and 7.3 min in assay [2] (0.1 mg/kg).
Turning to `CCC(=CC(CSc1nnnn1C)=NO)C(C)[N+](=O)[O-]` (single isomer, unassigned) [Example 12 A, 1-Methyl-5-(4-ethyl-2-hydroxyimino-5-nitro-3-hexen-1-yl)thiotetrazole], the IC50 in assay [1] (setting [5]) worked out at 1.1 µM. Also, in assay [2] (0.032 mg/kg), the inhibition in vivo at 0.032 mg/kg amounted to 16.7% and the “Hypotensive effect T 1/2” value is 7.4 min. Further, in assay [2] (0.1 mg/kg), the inhibition in vivo at 0.1 mg/kg worked out at 37.7% and the “Hypotensive effect T 1/2” value turned out to be 5.9 min. For the same compound, in assay [3] (Rattus norvegicus), the IC50 was 4.9 µM.
On to `CCC(=CC(CNC(=O)c1cccnc1)=NO)C(C)[N+](=O)[O-]` (stereo not drawn) [Example 6 A], for which, in assay [1] (setting [5]), the IC50 was determined as 1.8 µM. Besides, in assay [2] (0.1 mg/kg), the inhibition in vivo at 0.1 mg/kg came out at 16.9% and the “Hypotensive effect T 1/2” value worked out at 6.8 min. Moreover, in assay [2] (0.32 mg/kg), the inhibition in vivo at 0.32 mg/kg is 36.3% and the “Hypotensive effect T 1/2” value came to 11.2 min. In assay [4] (3.2 mg/kg), the “Hypotensive effect Dur.” value was found to be 29.3 min, the “Hypotensive effect T 1/2” value came to 20 min and the inhibition in vivo at 3.2 mg/kg was found to be 22.3%. In addition, in assay [4] (10 mg/kg), the “Hypotensive effect Dur.” value turned out to be 116.0 min, the “Hypotensive effect T 1/2” value is 30 min and the inhibition in vivo at 10 mg/kg was found to be 27.2%. Also, in assay [4] (32 mg/kg), the “Hypotensive effect Dur.” value is over 300 min, the “Hypotensive effect T 1/2” value was 117 min and the inhibition in vivo at 32 mg/kg came out at 29.6%. Further, the IC50 in assay [3] is 25.1 µM.
With `CCC(=CC(CNC(C)=O)=NO)C(C)[N+](=O)[O-]` (single isomer, unassigned) [Example 5 A, 1-Acetylamino-4-ethyl-2-hydroxyimino-5-nitro-3-hexene], the IC50 in assay [1] (setting [5]) came to 5.1 µM. In assay [2] (0.32 mg/kg), the inhibition in vivo at 0.32 mg/kg came out at 49.9% and the “Hypotensive effect T 1/2” value was 12.8 min. Also, the “Hypotensive effect T 1/2” value in assay [2] (0.1 mg/kg) worked out at 7.6 min. Also, in assay [4] (3.2 mg/kg), the “Hypotensive effect Dur.” value was 30.8 min, the “Hypotensive effect T 1/2” value amounted to 16 min and the inhibition in vivo at 3.2 mg/kg was 27.2%. Moreover, in assay [4] (10 mg/kg), the “Hypotensive effect Dur.” value was 83.9 min, the “Hypotensive effect T 1/2” value came out at 25 min and the inhibition in vivo at 10 mg/kg is 54.4%. In addition, in assay [4] (32 mg/kg), the “Hypotensive effect Dur.” value turned out to be 144.2 min, the “Hypotensive effect T 1/2” value stood at 75.6 min and the inhibition in vivo at 32 mg/kg amounted to 60.6%. The compound further showed an IC50 in assay [3] (Rattus norvegicus) of 46.9 µM.
